Test results from PubChem BioAssay AID602217 (Sanford-Burnham Center for Chemical Genomics, 2012).
The source made the active and inactive calls.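 Rule for the calls: active = IC50 at or below a set limit; inactive = the rest.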

System: HL-1 cardiomyocytes, 2-deoxyglucose injury, ATPLite luminescence, 2 h
Test: protection of HL-1 cardiomyocytes from 2-deoxyglucose injury, dose response, cell-based, ATPLite luminescence (AID 602217);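 note: cells kept in glucose-free DMEM during the 2-deoxyglucose injury; potency of protection where actives preserve ATP signal against 2-deoxyglucose stress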

| SMILES | IC50 |
| --- | --- |
| COc1ccc(C(C(=O)NCc2ccccc2)N(Cc2ccco2)C(=O)c2snc(C(N)=O)c2N)cc1 (stereo unspecified) | 39.5 µM (inactive) |
| O=C(Nc1ccccc1)c1nc[nH]c1C(=O)NCCCCNC(=O)c1[nH]cnc1C(=O)Nc1ccccc1 | 6.36 µM |
| O=C(NCC(=O)N(Cc1cccs1)C(C(=O)NC1CCCCC1)c1ccco1)c1ccco1 (stereo unspecified) | > 79 µM (inactive) |
| O=C(NCC(=O)N(Cc1ccccc1)C(C(=O)NC1CCCCC1)c1ccco1)c1ccco1 (stereo unspecified) | > 79 µM (inactive) |
| COc1cccc(/C=N/NC(=O)c2oc3nc(-c4ccccc4)cc(-c4ccco4)c3c2N)c1 | 4.97 µM |
| CCN(CC(=O)Nc1ccc(OC)cc1)C(=O)c1cc(-c2cccs2)nn1-c1ccccc1 | 17.6 µM |
| COc1cccc(-c2cnc3c(NC=O)cc(-c4cccc(NC(C)=O)c4)cn23)c1 | 17.6 µM |
| Cn1c(=O)c2[nH]c(NN=Cc3ccc(Br)cc3)nc2n(C)c1=O | 10.2 µM |
| NC(=O)c1nsc(C(=O)N(Cc2ccco2)C(C(=O)NCc2ccccc2)c2ccc(O)cc2)c1N (stereo unspecified) | 32.2 µM (inactive) |
| CCOc1cc(-c2cc(-c3ccc(N)cc3)nc(N)c2C#N)ccc1O | > 79 µM (inactive) |
| COc1cc(OC)cc(-c2cc3nc(C)c(CCC(=O)Nc4nc(C)cs4)c(C)n3n2)c1 | > 79 µM (inactive) |
